Assay [1] has as its system HepG2. Kind of assay: Cytotoxicity against human HepG2 cells assessed as growth inhibition at 30 uM after 24 to 48 hrs by MTT assay relative to control. The assay is classed as functional. Conditions: read-out: GI. On the technique in general: Tetrazolium assays rely on reduction of a dye to a coloured formazan, in cell work by metabolically active cells.
The nature of assay [2]: Cytotoxicity against human MIAPaCa2 cells assessed as growth inhibition at 10 uM after 24 to 48 hrs by MTT assay relative to control. Conditions: MIA PaCa-2, read-out: GI. Type of assay: functional.
The test system of assay [3] is HCT-116. Kind of assay: cells. The following applies: Homo sapiens, HCT-116, 48 h.
Description: Cytotoxicity against human HCT116 cells assessed as inhibition of cell proliferation after 48 hrs by MTT assay
The subject of assay [4] is HL-60. Briefly: Cytotoxicity against human HL60 cells assessed as growth inhibition at 100 uM after 24 to 48 hrs by MTT assay relative to control. The following applies: read-out: GI. The assay is classed as functional.
Assay [5] deals with HCT-116. Briefly: Cytotoxicity against human HCT116 cells assessed as growth inhibition at 30 uM after 24 to 48 hrs by MTT assay relative to control. Type of assay: functional. The following applies: read-out: GI.
Assay [6] has as its system HL-60. Kind of assay: Cytotoxicity against human HL60 cells assessed as growth inhibition at 30 uM after 24 to 48 hrs by MTT assay relative to control. The assay is classed as functional. The following applies: read-out: GI.
Assay [7] deals with HL-60. Kind of assay: cells. Conditions: Homo sapiens, HL-60, 48 h.
Description: Cytotoxicity against human HL60 cells assessed as inhibition of cell proliferation after 48 hrs by MTT assay
The subject of assay [8] is HepG2. Kind of assay: cells. Conditions: Homo sapiens, HepG2, 48 h.
Description: Cytotoxicity against human HepG2 cells assessed as inhibition of cell proliferation after 48 hrs by MTT assay
Assay [9] concerns HepG2. Briefly: Cytotoxicity against human HepG2 cells assessed as growth inhibition at 10 uM after 24 to 48 hrs by MTT assay relative to control. The assay is classed as functional. Conditions: read-out: GI.
For assay [10], the system named is PC-3. Kind of assay: Cytotoxicity against human PC3 cells assessed as growth inhibition at 30 uM after 24 to 48 hrs by MTT assay relative to control. Type of assay: functional. Conditions: read-out: GI.
In assay [11] the test system is PC-3. Kind of assay: Cytotoxicity against human PC3 cells assessed as growth inhibition at 10 uM after 24 to 48 hrs by MTT assay relative to control. Type of assay: functional. The following applies: read-out: GI.
In assay [12] the test system is PC-3. Briefly: Cytotoxicity against human PC3 cells assessed as growth inhibition at 100 uM after 24 to 48 hrs by MTT assay relative to control. The following applies: read-out: GI. The assay is classed as functional.
The test system of assay [13] is PC-3. Briefly: cells. Conditions: Homo sapiens, PC-3, 48 h.
Description: Cytotoxicity against human PC3 cells assessed as inhibition of cell proliferation after 48 hrs by MTT assay
Assay [14] has as its system HepG2. Briefly: Cytotoxicity against human HepG2 cells assessed as growth inhibition at 100 uM after 24 to 48 hrs by MTT assay relative to control. Type of assay: functional. Conditions: read-out: GI.
A short description of assay [15]: Cytotoxicity against human MIAPaCa2 cells assessed as growth inhibition at 30 uM after 24 to 48 hrs by MTT assay relative to control. The assay is classed as functional. Conditions: MIA PaCa-2, read-out: GI.
Assay [16] deals with HCT-116. Briefly: Cytotoxicity against human HCT116 cells assessed as growth inhibition at 10 uM after 24 to 48 hrs by MTT assay relative to control. The assay is classed as functional. The following applies: read-out: GI.
For assay [17], the system named is HL-60. Kind of assay: Cytotoxicity against human HL60 cells assessed as growth inhibition at 10 uM after 24 to 48 hrs by MTT assay relative to control. The following applies: read-out: GI. Type of assay: functional.
Assay [18] is described as follows: Cytotoxicity against human MIAPaCa2 cells assessed as growth inhibition at 100 uM after 24 to 48 hrs by MTT assay relative to control. Type of assay: functional. Conditions: MIA PaCa-2, read-out: GI.
The subject of assay [19] is HCT-116. Briefly: Cytotoxicity against human HCT116 cells assessed as growth inhibition at 100 uM after 24 to 48 hrs by MTT assay relative to control. Type of assay: functional. The following applies: read-out: GI.
Another assay in a line: cells. Conditions: Homo sapiens, MIA PaCa-2, 48 h.

pIC50: −log10 of the molar value. A value given as a limit tells only on which side of the number the result lay.

Regarding `O=S(=O)(c1ccc(F)cc1)N(c1ccccc1)c1ccnc2ccc(-c3ccc(O)cc3)cc12`, the inhibition of growth at 30 µM with HepG2 [1] was 10%; with HCT-116 [5], 57%; with HL-60 [6], 51%; with PC-3 [10], 43%; in [15], 30%. Besides, the inhibition of growth at 10 µM in assay [2] is 9%; in the assay on HepG2 [9], 1%; in the assay on PC-3 [11] it was 16%; with HCT-116 [16], 20%; in the assay on HL-60 [17], 2%. Also, the pIC50 in the assay on HCT-116 [3] is 4.57; in the assay on HL-60 [7], 4.55; in the assay with HepG2 [8], 4.07; with PC-3 [13] it was 4.38; in the assay “cells”, 4.19. Also, the inhibition of growth at 100 µM in the assay with HL-60 [4] is 79%; in the assay with PC-3 [12], 87%; with HepG2 [14], 60%; in assay [18] it was 70%; with HCT-116 [19], 92%.
Turning to `O=S(=O)(c1ccc(Br)cc1)N(c1ccccc1)c1ccnc2ccc(-c3ccc(O)cc3)cc12`, the inhibition of growth at 30 µM in the assay with HepG2 [1] is 73%; with HCT-116 [5], 23%; with HL-60 [6] it was 88%; in the assay on PC-3 [10], 28%; in [15] it was 76%. The inhibition of growth at 10 µM in [2] turned out to be 27%; with HepG2 [9], 1%; in the assay on PC-3 [11], 15%; in the assay on HCT-116 [16] it was 9%; in the assay with HL-60 [17], 69%. In addition, the pIC50 in the assay on HCT-116 [3] is 4.17; in the assay on HL-60 [7], above 5.00; in the assay with HepG2 [8], 4.66; in the assay on PC-3 [13], below 4.00; in the assay “cells” it was 4.70. In addition, the inhibition of growth at 100 µM in the assay with HL-60 [4] was determined as 87%; in the assay with PC-3 [12], 25%; with HepG2 [14], 80%; in assay [18] it was 81%; in the assay with HCT-116 [19], 73%.
In the case of `O=[N+]([O-])c1ccc(S(=O)(=O)N(c2ccccc2)c2ccnc3ccc(-c4ccc(O)cc4)cc23)cc1`, the inhibition of growth at 30 µM in the assay with HepG2 [1] came out at 76%; in the assay with HCT-116 [5], 4%; with HL-60 [6], 87%; in the assay on PC-3 [10], 30%; in assay [15], 59%. Moreover, the inhibition of growth at 10 µM was 21% in assay [2]; 8% in the assay on HepG2 [9]; 4% with PC-3 [11]; 2% in the assay on HCT-116 [16]; 86% in the assay on HL-60 [17]. Further, the pIC50 in the assay on HCT-116 [3] is 4.05; with HL-60 [7], above 5.00; with HepG2 [8] it was 4.66; in the assay with PC-3 [13], below 4.00; in the assay “cells” it was 4.60. The inhibition of growth at 100 µM in the assay on HL-60 [4] stood at 89%; in the assay with PC-3 [12] it was 47%; in the assay with HepG2 [14], 84%; in [18], 81%; with HCT-116 [19], 58%.
As for `Oc1ccc(-c2ccc3nccc(Nc4ccccc4)c3c2)cc1`, the inhibition of growth at 30 µM in the assay on HepG2 [1] worked out at 53%; with HCT-116 [5] it was 53%; with HL-60 [6], 65%; with PC-3 [10], 74%; in assay [15], 91%. For the same molecule, the inhibition of growth at 10 µM in assay [2] came to 28%; with HepG2 [9], 8%; with PC-3 [11] it was 27%; in the assay on HCT-116 [16], 8%; in the assay on HL-60 [17], 41%. Also, the pIC50 was 4.57 with HCT-116 [3]; 4.85 in the assay with HL-60 [7]; 4.74 with HepG2 [8]; 4.68 with PC-3 [13]; 4.74 in “cells”. The inhibition of growth at 100 µM in the assay on HL-60 [4] is 82%; in the assay with PC-3 [12], 90%; in the assay with HepG2 [14] it was 86%; in [18] it was 93%; in the assay with HCT-116 [19], 86%.
In the case of `COc1ccc(-c2ccc3nccc(Nc4ccccc4)c3c2)cc1`, the inhibition of growth at 30 µM was 30% in the assay on HepG2 [1]; 45% in the assay on HCT-116 [5]; 69% in the assay with HL-60 [6]; 46% in the assay with PC-3 [10]; 53% in assay [15]. Further, the inhibition of growth at 10 µM turned out to be 42% in assay [2]; 19% with HepG2 [9]; 40% in the assay on PC-3 [11]; 16% in the assay with HCT-116 [16]; 32% with HL-60 [17]. Further, the pIC50 with HCT-116 [3] was 4.40; in the assay on HL-60 [7], 4.74; in the assay on HepG2 [8] it was below 4.00; in the assay on PC-3 [13], 4.41; in “cells” it was 4.59. In addition, the inhibition of growth at 100 µM in the assay with HL-60 [4] was 91%; with PC-3 [12] it was 71%; with HepG2 [14], 36%; in assay [18], 55%; in the assay with HCT-116 [19] it was 77%.
`CC(C)(C)c1ccc(S(=O)(=O)N(c2ccccc2)c2ccnc3ccc(-c4ccc(O)cc4)cc23)cc1`: the inhibition of growth at 30 µM in the assay with HepG2 [1] is 89%; in the assay on HCT-116 [5], 35%; in the assay with HL-60 [6], 89%; in the assay with PC-3 [10], 45%; in [15], 85%. Also, the inhibition of growth at 10 µM in assay [2] is 79%; with HepG2 [9] it was 14%; in the assay on PC-3 [11], 21%; in the assay on HCT-116 [16], 20%; with HL-60 [17] it was 76%. Moreover, the pIC50 in the assay with HCT-116 [3] was 4.51; in the assay on HL-60 [7], above 5.00; with HepG2 [8], 4.74; with PC-3 [13] it was 4.36; in “cells”, above 5.00. Further, the inhibition of growth at 100 µM with HL-60 [4] amounted to 93%; in the assay on PC-3 [12], 70%; with HepG2 [14] it was 98%; in assay [18], 90%; in the assay with HCT-116 [19], 83%.
Take `Nc1ccc(S(=O)(=O)N(c2ccccc2)c2ccnc3ccc(-c4ccc(O)cc4)cc23)cc1`: the inhibition of growth at 30 µM in the assay on HepG2 [1] was determined as 70%; with HCT-116 [5], 54%; in the assay on HL-60 [6], 81%; in the assay on PC-3 [10], 40%; in assay [15] it was 84%. In addition, the inhibition of growth at 10 µM was found to be 64% in [2]; 59% in the assay on HepG2 [9]; 30% in the assay with PC-3 [11]; 33% with HCT-116 [16]; 66% in the assay with HL-60 [17]. Moreover, the pIC50 with HCT-116 [3] was 4.55; with HL-60 [7], 5.30; with HepG2 [8], 5.05; in the assay with PC-3 [13] it was 4.35; in “cells”, 5.10. Moreover, the inhibition of growth at 100 µM in the assay with HL-60 [4] was determined as 92%; with PC-3 [12] it was 84%; in the assay on HepG2 [14], 71%; in assay [18], 85%; in the assay with HCT-116 [19] it was 88%.
Consider `O=[N+]([O-])c1cc(S(=O)(=O)N(c2ccccc2)c2ccnc3ccc(-c4ccc(O)cc4)cc23)ccc1C(F)(F)F`, for which the inhibition of growth at 30 µM with HepG2 [1] came to 3%; with HCT-116 [5] it was 23%; in the assay on HL-60 [6], 92%; in the assay with PC-3 [10], 68%; in [15], 60%. For the same molecule, the inhibition of growth at 10 µM came out at 45% in assay [2]; 3% with HepG2 [9]; 39% in the assay on PC-3 [11]; 20% with HCT-116 [16]; 90% with HL-60 [17]. Besides, the pIC50 with HCT-116 [3] is below 4.00; with HL-60 [7], above 5.00; in the assay with HepG2 [8], below 4.00; with PC-3 [13] it was 4.74; in “cells” it was 4.80. For the same molecule, the inhibition of growth at 100 µM came to 93% in the assay on HL-60 [4]; 84% in the assay with PC-3 [12]; 8% in the assay with HepG2 [14]; 79% in [18]; 29% in the assay on HCT-116 [19].

Usually pIC50 stands for −log10 of the IC50, conventionally taken in molar units. The low end stands for a large IC50, the high end for a small IC50.

The record behind these values is ChEMBL document CHEMBL3593172, “4-(N-Phenyl-N'-substituted benzenesulfonyl)-6-(4-hydroxyphenyl)quinolines as inhibitors of mammalian target of rapamycin” (Bioorg Med Chem, 2015).
